Source: PubChem BioAssay AID256 (DTP/NCI, 2004)
“And” between values parts separate entries of the source, which are not always exact repeats. Equal entries are not always repeated. Inconclusive results and toxic doses are left out.

Tested on: CD2F1 mice, L1210 leukemia ip, survival T/C
Assay: NCI In Vivo Anticancer Drug Screen. Data for tumor model L1210 Leukemia (intraperitoneal) in CD2F1 (CDF1) mice
Settings: higher = longer survival
Outline: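 Vehicle-treated tumor-bearing mice served as controls (C) for compound-treated mice (T). Reported figure is T divided by C.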

[1] = endpoint: mean survival time, dose: 100.0 mg/kg/injection, schedule: Q04DX003 (ip), vehicle: saline
[2] = endpoint: mean survival time, dose: 200.0 mg/kg/injection, schedule: Q04DX003 (ip), vehicle: saline
[3] = endpoint: mean survival time, dose: 100.0 mg/kg/injection, schedule: Q01DX009 (ip), vehicle: saline
[4] = endpoint: mean survival time, dose: 100.0 mg/kg/injection, schedule: Q04DX003 (ip), vehicle: saline with Tween-80
[5] = endpoint: mean survival time, dose: 200.0 mg/kg/injection, schedule: Q04DX003 (ip), vehicle: saline with Tween-80

In the case of `O.O.O=C(O)C(O)C(O)C(OC1OC(CO)C(O)C(O)C1O)C(O)CO.O=C(O)C(O)C(O)C(OC1OC(CO)C(O)C(O)C1O)C(O)CO.[NH-]C1CCCCC1[NH-].[Pt+2]` (stereo not given), the T/C (endpoint: median survival time, dose: 3.12 mg/kg/injection, schedule: Q04DX003 (ip), vehicle: saline) is reported as 100 % of control, the T/C (endpoint: median survival time, dose: 6.25 mg/kg/injection, schedule: Q04DX003 (ip), vehicle: saline) is reported as 100 % of control and the T/C (endpoint: median survival time, dose: 12.5 mg/kg/injection, schedule: Q04DX003 (ip), vehicle: saline) is reported as 102 % of control. The T/C (endpoint: median survival time, dose: 25.0 mg/kg/injection, schedule: Q04DX003 (ip), vehicle: saline) was 101 % of control, the T/C (endpoint: median survival time, dose: 50.0 mg/kg/injection, schedule: Q04DX003 (ip), vehicle: saline) was 98 % of control and the T/C (endpoint: median survival time, dose: 100.0 mg/kg/injection, schedule: Q04DX003 (ip), vehicle: saline) was 101 % of control. For the same compound, the T/C (endpoint: median survival time, dose: 200.0 mg/kg/injection, schedule: Q04DX003 (ip), vehicle: saline) was 112 % of control.

`O=C1C2(Cl)C(Cl)=C(Cl)C1(Cl)C1(Cl)C(Cl)=C(Cl)C(=O)C21Cl` (stereo not given) was tested, and the T/C (endpoint: mean survival time, dose: 10.0 mg/kg/injection, schedule: Q01DX009 (ip), vehicle: saline with Tween-80) was 94 % of control, the T/C (endpoint: mean survival time, dose: 20.0 mg/kg/injection, schedule: Q01DX009 (ip), vehicle: saline with Tween-80) was 94 % of control and the T/C (endpoint: mean survival time, dose: 40.0 mg/kg/injection, schedule: Q01DX009 (ip), vehicle: saline with Tween-80) was 92 % of control.

In the case of `NC(=O)c1csc(C2OC(CO)C(O)C2O)[n+]1[O-]` (stereo not given), the T/C (endpoint: median survival time, dose: 9.38 mg/kg/injection, schedule: Q01DX005 (ip), vehicle: saline) is reported as 102 % of control, the T/C (endpoint: median survival time, dose: 18.75 mg/kg/injection, schedule: Q01DX005 (ip), vehicle: saline) is reported as 101 % of control and the T/C (endpoint: median survival time, dose: 37.5 mg/kg/injection, schedule: Q01DX005 (ip), vehicle: saline) is reported as 103 % of control. For the same compound, the T/C (endpoint: median survival time, dose: 75.0 mg/kg/injection, schedule: Q01DX005 (ip), vehicle: saline) was 104 % of control and the T/C (endpoint: median survival time, dose: 150.0 mg/kg/injection, schedule: Q01DX005 (ip), vehicle: saline) was 104 % of control.

With `C[n+]1ccc(Nc2ccc(NC(=O)c3ccc(Nc4cc[n+](C)c5ccc([N+](=O)[O-])cc45)cc3)cc2)cc1` the T/C (endpoint: mean survival time, dose: 1.0 mg/kg/injection, schedule: Q01DX009 (ip), vehicle: water) was 103 % of control, the T/C (endpoint: mean survival time, dose: 2.0 mg/kg/injection, schedule: Q01DX009 (ip), vehicle: water) was 110 % of control and the T/C (endpoint: mean survival time, dose: 4.0 mg/kg/injection, schedule: Q01DX009 (ip), vehicle: water) was 116 % of control. For the same compound, the T/C (endpoint: mean survival time, dose: 16.0 mg/kg/injection, schedule: Q01DX009 (ip), vehicle: water) was 174 % of control, the T/C (endpoint: mean survival time, dose: 32.0 mg/kg/injection, schedule: Q01DX009 (ip), vehicle: water) was 223 % of control and the T/C (endpoint: mean survival time, dose: 50.0 mg/kg/injection, schedule: Q04DX003 (ip), vehicle: saline) was 162 % of control. The T/C [1] was 186 % of control and the T/C [2] was 201 % of control.

In the case of `O=C1CC2=C(CC(O)=CC=C2)C(=O)O1`, the T/C [3] is reported as 101 % of control and the T/C (endpoint: mean survival time, dose: 200.0 mg/kg/injection, schedule: Q01DX009 (ip), vehicle: saline) is reported as 93 % of control.

`CCCOP(=O)(N1CC1(C)C)N1CC1(C)C` (stereo not given) was tested, and the T/C (endpoint: mean survival time, dose: 6.3 mg/kg/injection, schedule: Q04DX003 (ip), vehicle: saline) was 101 % of control, the T/C (endpoint: mean survival time, dose: 12.5 mg/kg/injection, schedule: Q04DX003 (ip), vehicle: saline) was 101 % of control and the T/C (endpoint: mean survival time, dose: 25.0 mg/kg/injection, schedule: Q01DX009 (ip), vehicle: saline) was 119 % of control. The T/C (endpoint: mean survival time, dose: 25.0 mg/kg/injection, schedule: Q04DX003 (ip), vehicle: saline) was 124 % of control, the T/C (endpoint: mean survival time, dose: 50.0 mg/kg/injection, schedule: Q01DX009 (ip), vehicle: saline) was 188 % of control and the T/C [3] was 156 % of control and 186 % of control. The T/C [1] was 124 % of control.

In the case of `COP(=O)(NC(C)=O)OC`, the T/C (endpoint: mean survival time, dose: 50.0 mg/kg/injection, schedule: Q04DX002 (ip), vehicle: saline) is reported as 87 % of control, the T/C (endpoint: mean survival time, dose: 100.0 mg/kg/injection, schedule: Q04DX002 (ip), vehicle: saline) is reported as 93 % of control and the T/C (endpoint: mean survival time, dose: 200.0 mg/kg/injection, schedule: Q04DX002 (ip), vehicle: saline) is reported as 93 % of control. The T/C (endpoint: mean survival time, dose: 400.0 mg/kg/injection, schedule: Q04DX002 (ip), vehicle: saline) was 96 % of control.

For `O=C(c1ccccc1)C(Br)C(C(=O)O)c1ccccc1` (stereo not given), the T/C [4] was 101 % of control, the T/C [5] was 95 % of control and the T/C (endpoint: mean survival time, dose: 400.0 mg/kg/injection, schedule: Q04DX003 (ip), vehicle: saline with Tween-80) was 95 % of control.

In the case of `CCOC(=O)c1ccc(NC(=O)CCOc2ccccc2)cc1`, the T/C (endpoint: mean survival time, dose: 100.0 mg/kg/injection, schedule: Q01DX009 (ip), vehicle: saline with Tween-80) is reported as 92 % of control and 101 % of control, the T/C (endpoint: mean survival time, dose: 100.0 mg/kg/injection, schedule: Q04DX002 (ip), vehicle: saline with Tween-80) is reported as 91 % of control and the T/C [4] is reported as 86 % of control. The T/C (endpoint: mean survival time, dose: 200.0 mg/kg/injection, schedule: Q01DX009 (ip), vehicle: saline with Tween-80) was 92 % of control and 96 % of control, the T/C (endpoint: mean survival time, dose: 200.0 mg/kg/injection, schedule: Q04DX002 (ip), vehicle: saline with Tween-80) was 86 % of control and 87 % of control and the T/C [5] was 86 % of control. The T/C (endpoint: mean survival time, dose: 400.0 mg/kg/injection, schedule: Q01DX009 (ip), vehicle: saline with Tween-80) was 89 % of control and 95 % of control and the T/C (endpoint: mean survival time, dose: 400.0 mg/kg/injection, schedule: Q04DX002 (ip), vehicle: saline with Tween-80) was 94 % of control.

In the case of `OC1CCCC(O)C1O` (stereo not given), the T/C [1] is reported as 101 % of control, the T/C [2] is reported as 97 % of control and the T/C (endpoint: mean survival time, dose: 400.0 mg/kg/injection, schedule: Q04DX003 (ip), vehicle: saline) is reported as 101 % of control.
